Measured values published in patent publication US6525001B1, “Substituted pyrimidine and pyridine herbicides” (Mid-American Commercialization Corporation, priority 1997, dated 2003).

Tests used:
Assay type in all cases: in vivo
Set-up in all cases: key: 0 is no effect; 10 is complete control
rape (Brassica napus) = experiment: Test B pre-/postemergence
Outline: (§1)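 Scored visually 0 (none) to 10 (complete control) against untreated plants after twelve to sixteen greenhouse days. Test chemicals, formulated in surfactant-containing non-phytotoxic solvent, applied to soil after planting and, separately, onto 1- to 4-leaf (2–18 cm) plants.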

soybean (Glycine max) = experiment: Test B pre-/postemergence
Outline: as §1

[1] = tested on: bamyardgrass (Echinochloa crus-galli); experiment: Test B flood test
Outline: (§2)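 Flood test on plants grown to the 2-leaf stage; treated plants kept in greenhouse twelve to sixteen days, then visually rated against controls on a 0 (no effect) to 10 (complete control) scale.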

[2] = tested on: duck salad (Heteranthera limosa); experiment: Test B flood test
Outline: as §2

rice (Oryza sativa) = experiment: Test B flood test
Outline: as §2

[3] = tested on: smallflower flatsedge (Cyperus difformis); experiment: Test B flood test
Outline: as §2

[4] = Rate 62 g/ha, Postemergence (flood test)
[5] = Rate 125 g/ha, Postemergence, flood test
[6] = Rate 250 g/ha, Postemergence (flood test species)
[7] = Rate 500 g/ha, Postemergence (flood test species)

Row | Compound | Plant response rating, Rape (rape (Brassica napus); Rate 62 g/ha, Postemergence) | Rape plant response rating (rape (Brassica napus); Rate 62 g/ha, Preemergence) | Plant response rating, Rape (rape (Brassica napus); Rate 125 g/ha, Postemergence) | Rape plant response rating (rape (Brassica napus); Rate 125 g/ha, Preemergence) | Plant response rating, Rape (rape (Brassica napus); Rate 250 g/ha, Postemergence) | Plant response rating, Rape (rape (Brassica napus); Rate 250 g/ha, Preemergence) | Plant response rating, Rape (rape (Brassica napus); Rate 500 g/ha, Postemergence) | Plant response rating, Rape (rape (Brassica napus); Rate 500 g/ha, Preemergence) | Plant response rating, Soybean (soybean (Glycine max); Rate 62 g/ha, Postemergence) | Soybean plant response rating (soybean (Glycine max); Rate 62 g/ha, Preemergence) | Plant response rating, Soybean (soybean (Glycine max); Rate 125 g/ha, Postemergence) | Soybean plant response rating (soybean (Glycine max); Rate 125 g/ha, Preemergence) | Plant response rating, Soybean (soybean (Glycine max); Rate 250 g/ha, Postemergence) | Plant response rating, Soybean (soybean (Glycine max); Rate 250 g/ha, Preemergence) | Plant response rating, Soybean (soybean (Glycine max); Rate 500 g/ha, Postemergence) | Plant response rating, Soybean (soybean (Glycine max); Rate 500 g/ha, Preemergence) | Plant response rating, Barnyardgrass [1, 4] | Plant response rating, Barnyardgrass [1, 5] | Plant response rating, Barnyardgrass [1, 6] | Plant response rating, Barnyardgrass [1, 7] | further results
1 | Cc1cnc(-c2ccc(C(F)(F)F)cc2)nc1Cn1cnc(C(F)(F)F)c1 [Compound 10] | 8 | 3 | 9 | 4 | 9 | 4 | 9 | 7 | 6 | 0 | 6 | 0 | 8 | 1 | 8 | 1 | 1 | 2 | 3 | 4 | Plant response rating, Ducksalad [2, 4]: 1; Plant response rating, Ducksalad [2, 5]: 1; Plant response rating, Ducksalad [2, 6]: 3; Plant response rating, Ducksalad [2, 7]: 5; Plant response rating, Rice (rice (Oryza sativa); [4]): 0; Plant response rating, Rice (rice (Oryza sativa); [5]): 2; Plant response rating, Rice (rice (Oryza sativa); [6]): 2; Plant response rating, Rice (rice (Oryza sativa); [7]): 3; Plant response rating, S. Flatsedge [3, 4]: 6; Plant response rating, S. Flatsedge [3, 5]: 9; Plant response rating, S. Flatsedge [3, 6]: 9; Plant response rating, S. Flatsedge [3, 7]: 9
2 | Cc1cnc(-c2ccc(C(F)(F)F)cc2)nc1Cn1ccc(C(F)(F)C(F)(F)F)n1 [Compound 14] | 5 | 0 | 6 | 1 | 6 | 2 | 7 | 8 | 4 | 0 | 4 | 0 | 5 | 0 | 5 | 1 | 4 | 5 | 5 | 6 | Plant response rating, Ducksalad [2, 4]: 2; Plant response rating, Ducksalad [2, 5]: 2; Plant response rating, Ducksalad [2, 6]: 2; Plant response rating, Ducksalad [2, 7]: 3; Plant response rating, Rice (rice (Oryza sativa); [4]): 4; Plant response rating, Rice (rice (Oryza sativa); [5]): 4; Plant response rating, Rice (rice (Oryza sativa); [6]): 5; Plant response rating, Rice (rice (Oryza sativa); [7]): 5; Plant response rating, S. Flatsedge [3, 4]: 8; Plant response rating, S. Flatsedge [3, 5]: 8; Plant response rating, S. Flatsedge [3, 6]: 8; Plant response rating, S. Flatsedge [3, 7]: 9
3 | Cc1cnc(-c2ccc(OC(F)(F)F)cc2)nc1Cc1cccc(C(F)(F)F)c1 [Compound 16] | 1 | 0 | 2 | 0 | 2 | 0 | 5 | 1 | 3 | 0 | 3 | 0 | 4 | 0 | 4 | 0 | 2 | 3 | 4 | 4 | Plant response rating, Ducksalad [2, 4]: 0; Plant response rating, Ducksalad [2, 5]: 0; Plant response rating, Ducksalad [2, 6]: 1; Plant response rating, Ducksalad [2, 7]: 2; Plant response rating, Rice (rice (Oryza sativa); [4]): 1; Plant response rating, Rice (rice (Oryza sativa); [5]): 1; Plant response rating, Rice (rice (Oryza sativa); [6]): 3; Plant response rating, Rice (rice (Oryza sativa); [7]): 4; Plant response rating, S. Flatsedge [3, 4]: 1; Plant response rating, S. Flatsedge [3, 5]: 2; Plant response rating, S. Flatsedge [3, 6]: 2; Plant response rating, S. Flatsedge [3, 7]: 3
